This is an account of results in article PMC12669672, “Structural insights into selective and dual antagonism of EP2 and EP4 prostaglandin receptors” (The EMBO Journal, 2025).

pIC50, pKi: −log10 of the molar value. Several values for one entry are separate records, joined by “and”; a condition that tells them apart may be missing. Equal entries are not always repeated.

One may read the pKi as −log10 of the Ki, conventionally taken in molar units. Broadly, the pIC50 is the IC50 on a negative log10 scale, so that one unit is a factor of ten.

The target of one experiment is EP4. Set-up: method as in Nakao et al, 2007. As to conditions: [3H]-PGE2 binding assay; ref Nakao et al, 2007; cited from earlier work.
Experiment [1] concerns the target T1, constitutively active EP4 S73A (Homo sapiens, UniProt P35408, S73A).
T1 construct: The full-length EP2 or EP4 was cloned into the pcDNA3.1 vector (Invitrogen), incorporating an N-terminal FLAG tag; expressed in transfected cells; host or cells: AD293
The experiment is described as follows: GloSensor cAMP assay, inhibition of constitutive activity. The conditions noted are these: for ΔpIC50: no PGE2, pIC50 mutant - pIC50 WT, mean. It counts as cell-based. For orientation: Cyclic AMP is a second messenger, typically raised through Gs and lowered through Gi signalling.

The next experiment deals with T2, EP4 S73A (Homo sapiens, UniProt P35408, S73A).
T2 construct: The full-length EP2 or EP4 was cloned into the pcDNA3.1 vector; FLAG (N); expressed in transfected cells; host or cells: AD293 cells
The experiment is described as follows: GloSensor cAMP assay, antagonism of PGE2-induced cAMP. The experiment is classed as cell-based. As to conditions: for cAMP activity (∆pIC50 from EP4 WT): Grapiprant, S73A; for ΔpIC50: PGE2 0.5 nM, pIC50 mutant - pIC50 WT, mean.

The target in a further experiment is T3, EP4-L99M (Homo sapiens, UniProt P35408, L99M).
T3 construct: The full-length EP2 or EP4 was cloned into the pcDNA3.1 vector (Invitrogen), incorporating an N-terminal FLAG tag; expressed in transfected cells; host or cells: AD293
The experiment in a line: GloSensor cAMP assay, antagonism of PGE2-induced cAMP, chimeric studies. The experiment is classed as cell-based. As to conditions: for ΔpIC50: PGE2 induced, pIC50 mutant - pIC50 WT, mean. Here is the method: The full-length EP2 or EP4 was cloned into the pcDNA3.1 vector (Invitrogen), incorporating an N-terminal FLAG tag. AD293 cells were seeded in six-well plates containing DMEM supplemented with 10% dialyzed FBS 1 day prior to transfection. Following overnight growth, cells were transfected with a 1:1 ratio of receptor construct and GloSensor22F cAMP biosensor (Promega) plasmids.
Twenty-four hours post-transfection, the cells were transferred to CO2-independent media containing 2% GloSensor cAMP Reagent (Promega) and distributed into 384-well assay plates at a density of 4000 cells per well in 10 μL. […] The plates were then incubated at 37 °C for an additional hour before luminescence measurements were taken using an EnVision plate reader.
Data analysis was performed using GraphPad Prism software v8.0.1. A nonlinear regression analysis, employing a sigmoidal dose–response model, was conducted to determine the Emax values and half-maximum inhibitory concentrations (IC50) for each compound tested.

Experiment [2] has as its target T4, constitutively active EP2 T82A (Homo sapiens, UniProt P43116, T82A).
T4 construct: The full-length EP2 or EP4 was cloned into the pcDNA3.1 vector; FLAG (N); expressed in transfected cells; host or cells: AD293 cells
The experiment is described as follows: GloSensor cAMP assay, inhibition of constitutive activity. It counts as cell-based. Put shortly: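 Read-out is GloSensor luminescence from AD293 cells co-expressing FLAG-tagged EP2 variant and GloSensor22F biosensor, transfected at a 1:1 plasmid ratio. Cells were plated at 4000 per well in CO2-independent medium containing 2% cAMP reagent, incubated 1 h at 37 °C, then read.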

In a further experiment the test system is EP2. Set-up: method as in af Forselles et al, 2011. As to conditions: against PGE2-induced cAMP signaling in GloSensor cAMP assay; ref af Forselles et al, 2011; cited from earlier work.

T1 sequence (P35408 whole entry S73A): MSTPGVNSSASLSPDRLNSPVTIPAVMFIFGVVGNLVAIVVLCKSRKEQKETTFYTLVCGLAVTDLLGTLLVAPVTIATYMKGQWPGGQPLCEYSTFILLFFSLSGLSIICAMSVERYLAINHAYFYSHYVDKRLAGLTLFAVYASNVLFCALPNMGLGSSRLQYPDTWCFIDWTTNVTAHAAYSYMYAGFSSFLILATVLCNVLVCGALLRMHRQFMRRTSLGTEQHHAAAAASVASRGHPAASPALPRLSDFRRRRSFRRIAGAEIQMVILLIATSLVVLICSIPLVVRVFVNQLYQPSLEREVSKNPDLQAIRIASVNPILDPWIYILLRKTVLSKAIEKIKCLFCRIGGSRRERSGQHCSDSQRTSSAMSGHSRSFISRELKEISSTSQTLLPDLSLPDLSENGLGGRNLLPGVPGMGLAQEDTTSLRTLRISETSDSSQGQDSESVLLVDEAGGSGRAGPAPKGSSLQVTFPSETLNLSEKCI
T2 sequence (P35408 whole entry S73A): as above
T3 sequence (P35408 whole entry L99M): as the sequence (P35408 whole entry S73A) above, with A73S, L99M counted along it
T4 sequence (P43116 whole entry T82A): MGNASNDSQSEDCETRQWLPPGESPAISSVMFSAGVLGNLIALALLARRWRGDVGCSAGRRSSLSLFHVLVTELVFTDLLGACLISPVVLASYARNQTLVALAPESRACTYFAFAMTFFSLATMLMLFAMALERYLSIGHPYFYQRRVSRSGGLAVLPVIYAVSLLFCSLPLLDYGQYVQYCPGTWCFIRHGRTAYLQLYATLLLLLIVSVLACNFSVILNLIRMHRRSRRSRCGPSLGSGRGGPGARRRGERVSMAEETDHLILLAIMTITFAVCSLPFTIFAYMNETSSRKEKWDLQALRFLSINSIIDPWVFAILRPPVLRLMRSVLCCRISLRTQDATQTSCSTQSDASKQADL

For `CCc1nc2c(C)nc(C)cc2n1-c1ccc(CCNC(=O)NS(=O)(=O)c2ccc(C)cc2)cc1` [Grapiprant], at EP4, the pKi was 7.89. Further, the pIC50 in experiment [1] was 8.66; at EP4 S73A, 8.25. For the same compound, the remaining activity at 10 µM in experiment [1] (1 h, Grapiprant log([M]) -5.00, EP4-S73A, read-out: % cAMP activity (normalized to WT)) was 12.1%. In addition, the remaining activity at 1 µM in experiment [1] (1 h, Grapiprant log([M]) -6.00, EP4-S73A, read-out: % cAMP activity (normalized to WT)) came out at 13.5%. The remaining activity at 0.1 µM came out at 20.4% in experiment [1] (1 h, Grapiprant log([M]) -7.00, EP4-S73A, read-out: % cAMP activity (normalized to WT)) and 52.4% at EP4-L99M (1 h, Grapiprant log([M]) -7, single experiments 1st-3rd, Fig. S7C, read-out: % cAMP activity (normalized to WT)). For the same compound, the remaining activity at 0.01 µM was 38.9% in experiment [1] (1 h, Grapiprant log([M]) -8.00, EP4-S73A, read-out: % cAMP activity (normalized to WT)) and 11.4% on EP4 S73A (1 h, Grapiprant log([M]) -8, read-out: % cAMP activity (normalized to WT)). The remaining activity at 0.001 µM is 127% in experiment [1] (1 h, Grapiprant log([M]) -9.00, EP4-S73A, read-out: % cAMP activity (normalized to WT)) and 21.5% at EP4 S73A (1 h, Grapiprant log([M]) -9, read-out: % cAMP activity (normalized to WT)). Further, the remaining activity at 1 pM in experiment [1] (1 h, Grapiprant log([M]) -12.00, EP4-S73A, read-out: % cAMP activity (normalized to WT)) turned out to be 170%; on EP4 S73A (1 h, Grapiprant log([M]) -12, read-out: % cAMP activity (normalized to WT)) it was 23.6%; at EP4-L99M (1 h, Grapiprant log([M]) -12, single experiments 1st-3rd, Fig. S7C, read-out: % cAMP activity (normalized to WT)) it was 85.6%. For the same compound, the “Grapiprant cAMP activity (∆pIC50 from EP4 WT), Mean” value in experiment [1] (S73A, Mean) came to 0.215. For the same compound, in experiment [1] (S73A, single experiments 1st-3rd), the “Grapiprant cAMP activity (∆pIC50 from EP4 WT)” value was 0.364 and 0.097 and 0.184. The ΔpIC50 in experiment [1] is listed as 0.22 ± 0.08; in experiment [1] (listed as grapiprant) it was “hardly influenced antagonistic potency”; on EP4 S73A it was 0.99 ± 0.07; at EP4 S73A (listed as grapiprant), “enhanced the antagonism”; on EP4-L99M it was -0.23 ± 0.07; at EP4-L99M (listed as grapiprant), “slightly decreased the antagonistic potency”. Besides, the remaining activity at 0.0001 µM is 24.9% on EP4 S73A (1 h, Grapiprant log([M]) -10, read-out: % cAMP activity (normalized to WT)) and 83.5% at EP4-L99M (1 h, Grapiprant log([M]) -10, single experiments 1st-3rd, Fig. S7C, read-out: % cAMP activity (normalized to WT)). In addition, the remaining activity at 10 pM at EP4 S73A (1 h, Grapiprant log([M]) -11, read-out: % cAMP activity (normalized to WT)) was 27.6%. The “cAMP activity (∆pIC50 from EP4 WT)” value is 0.985 on EP4 S73A (Mean); 1.017 and 1.087 and 0.851 at EP4 S73A (single experiments 1st-3rd).
As for `COc1ccc2cc(OCC3(C(=O)O)CN(C(=O)c4ccc(F)cc4)C3)ccc2c1` [PF-04418948], the remaining activity at 0.0001 µM in experiment [2] (1 h, PF-04418948 log([M]) -10.00, read-out: % cAMP activity (normalized to WT)) was 302%. The remaining activity at 1 pM in experiment [2] (1 h, PF-04418948 log([M]) -12.00, read-out: % cAMP activity (normalized to WT)) turned out to be 299%. The “cAMP activity (∆pIC50 from EP2 WT)” value in experiment [2] (PF-04418948, T82A, Mean) is reported as -0.369. This compound yielded a ΔpIC50 in experiment [2] (no PGE2, pIC50 mutant - pIC50 WT, mean) of -0.37 ± 0.10. Also, the Kb in the experiment on EP2 is 1.8 nM.
